Experimental data taken from PubChem BioAssay AID256 (DTP/NCI, 2004).
“And” between values parts separate entries of the source, which are not always exact repeats. Identical values can stand only once. Inconclusive results and toxic doses are left out.

Tested on: CD2F1 mice, L1210 leukemia ip, survival T/C
Assay: NCI In Vivo Anticancer Drug Screen. Data for tumor model L1210 Leukemia (intraperitoneal) in CD2F1 (CDF1) mice
Conditions: endpoint: mean survival time, higher = longer survival
In short: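 Read-out first: treated-group measurement over vehicle-control measurement, expressed as a ratio. Animals bore a transplanted tumor line and were dosed with compound or vehicle.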

[1] = dose: 100.0 mg/kg/injection, schedule: Q01DX009 (ip), vehicle: saline with Tween-80
[2] = dose: 200.0 mg/kg/injection, schedule: Q01DX009 (ip), vehicle: saline with Tween-80
[3] = dose: 400.0 mg/kg/injection, schedule: Q01DX009 (ip), vehicle: saline with Tween-80
[4] = dose: 25.0 mg/kg/injection, schedule: Q01DX009 (ip), vehicle: saline with Tween-80
[5] = dose: 50.0 mg/kg/injection, schedule: Q01DX009 (ip), vehicle: saline with Tween-80
[6] = dose: 100.0 mg/kg/injection, schedule: Q04DX003 (ip), vehicle: saline with Tween-80
[7] = dose: 200.0 mg/kg/injection, schedule: Q04DX003 (ip), vehicle: saline with Tween-80
[8] = dose: 400.0 mg/kg/injection, schedule: Q04DX003 (ip), vehicle: saline with Tween-80
[9] = dose: 100.0 mg/kg/injection, schedule: Q04DX003 (ip), vehicle: saline
[10] = dose: 200.0 mg/kg/injection, schedule: Q04DX003 (ip), vehicle: saline
[11] = dose: 400.0 mg/kg/injection, schedule: Q04DX003 (ip), vehicle: saline

For `CC(=O)O[C@H]1C(=O)[C@@]2(C)[C@H]([C@H](OC(=O)c3ccccc3)[C@]3(O)C[C@H](OC(=O)[C@H](O)[C@@H](NC(=O)c4ccccc4)c4ccccc4)C(C)=C1C3(C)C)[C@]1(OC(C)=O)CO[C@@H]1C[C@@H]2O`, the T/C (dose: 1.25 mg/kg/injection, schedule: Q01DX009 (ip), vehicle: Klucel (hydroxypropylcellulose) (HPC)) was 93 % of control, the T/C (dose: 2.5 mg/kg/injection, schedule: Q01DX009 (ip), vehicle: Klucel (hydroxypropylcellulose) (HPC)) was 98 % of control and the T/C (dose: 5.0 mg/kg/injection, schedule: Q01DX009 (ip), vehicle: Klucel (hydroxypropylcellulose) (HPC)) was 113 % of control and 102 % of control. For the same compound, the T/C (dose: 10.0 mg/kg/injection, schedule: Q01DX009 (ip), vehicle: Klucel (hydroxypropylcellulose) (HPC)) was 115 % of control and the T/C (dose: 40.0 mg/kg/injection, schedule: Q01DX009 (ip), vehicle: Klucel (hydroxypropylcellulose) (HPC)) was 107 % of control.
With `NC(=O)C(CSCc1ccccc1)NC(=O)OCc1ccccc1` (stereo not given) the T/C [1] was 91 % of control, the T/C [2] was 88 % of control and the T/C [3] was 91 % of control.
With `CC/C(=C/c1ccc(OC)cc1)[N+](=O)[O-]` the T/C (dose: 12.5 mg/kg/injection, schedule: Q01DX009 (ip), vehicle: Klucel (hydroxypropylcellulose) (HPC)) was 113 % of control, the T/C (dose: 25.0 mg/kg/injection, schedule: Q01DX009 (ip), vehicle: Klucel (hydroxypropylcellulose) (HPC)) was 102 % of control and the T/C (dose: 50.0 mg/kg/injection, schedule: Q01DX009 (ip), vehicle: Klucel (hydroxypropylcellulose) (HPC)) was 94 % of control.
In the case of `CC1CC(NC(=S)NC(=O)c2ccccc2Cl)CC(C)(C)C1` (stereo not given), the T/C [1] is reported as 86 % of control, the T/C [2] is reported as 86 % of control and the T/C [3] is reported as 86 % of control.
With `NC(=O)c1cc(N2CC2)c([N+](=O)[O-])cc1[N+](=O)[O-]` the T/C [4] was 114 % of control, the T/C (dose: 25.0 mg/kg/injection, schedule: Q04DX003 (ip), vehicle: saline with Tween-80) was 110 % of control and the T/C [5] was 115 % of control. The T/C (dose: 50.0 mg/kg/injection, schedule: Q04DX003 (ip), vehicle: saline with Tween-80) was 97 % of control and the T/C [6] was 106 % of control.
In the case of `CC(=O)Nc1ccc2cc3ccc(NC(C)=O)cc3nc2c1`, the T/C (dose: 100.0 mg/kg/injection, schedule: Q04DX002 (ip), vehicle: saline) is reported as 98 % of control, the T/C (dose: 200.0 mg/kg/injection, schedule: Q04DX002 (ip), vehicle: saline) is reported as 98 % of control and the T/C (dose: 400.0 mg/kg/injection, schedule: Q04DX002 (ip), vehicle: saline) is reported as 98 % of control.
In the case of `N=Cc1c(O)n(C2CCCCC2)c(=O)[nH]c1=O`, the T/C [1] is reported as 98 % of control, the T/C [6] is reported as 93 % of control and the T/C [2] is reported as 94 % of control. The T/C [7] was 93 % of control, the T/C [3] was 98 % of control and the T/C [8] was 91 % of control.
`CN(CC(=O)C(C)(C)C)c1ccccc1` was tested, and the T/C [9] was 103 % of control, the T/C [10] was 97 % of control and the T/C [11] was 103 % of control.
With `Oc1ccccc1C1=CCCCCC1` the T/C [9] was 95 % of control, the T/C [10] was 101 % of control and the T/C [11] was 104 % of control.
For `COc1ccc(C(=O)CCC(=O)O)c(C)c1`, the T/C [9] was 96 % of control, the T/C [10] was 94 % of control and the T/C [11] was 92 % of control.
For `CCN(CC)CC(C)Nc1c2ccc(Cl)cc2nc2ccc(OC)cc12` (stereo not given), the T/C (dose: 100.0 mg/kg/injection, schedule: Q04DX002 (ip), vehicle: saline with Tween-80) was 94 % of control, the T/C (dose: 200.0 mg/kg/injection, schedule: Q04DX002 (ip), vehicle: saline with Tween-80) was 91 % of control and the T/C (dose: 400.0 mg/kg/injection, schedule: Q04DX002 (ip), vehicle: saline with Tween-80) was 97 % of control.
`CCNC(=S)NN` was tested, and the T/C (dose: 12.5 mg/kg/injection, schedule: Q01DX009 (ip), vehicle: saline with Tween-80) was 100 % of control.
With `CCOc1nc(OCC)nc(-c2cccn2-c2ccccc2)n1` the T/C [1] was 95 % of control, the T/C [6] was 106 % of control and the T/C [2] was 87 % of control. The T/C [7] was 100 % of control, the T/C [3] was 93 % of control and the T/C [8] was 98 % of control.
In the case of `Nc1nc(N)nc(Nc2ccc(Sc3ccc(Nc4nc(N)nc(N)n4)cc3)cc2)n1`, the T/C (dose: 180.0 mg/kg/injection, schedule: Q01DX Z (ip), vehicle: saline) is reported as 103 % of control.
`O=C1C(Br)=CC2C1C1C=CC2(Br)C1=O` (stereo not given) was tested, and the T/C (dose: 50.0 mg/kg/injection, schedule: Q01DX001 (ip), vehicle: saline with Tween-80) was 109 % of control, the T/C (dose: 100.0 mg/kg/injection, schedule: Q01DX001 (ip), vehicle: saline with Tween-80) was 103 % of control and the T/C (dose: 200.0 mg/kg/injection, schedule: Q01DX001 (ip), vehicle: saline with Tween-80) was 101 % of control.
For `C=CCOc1ccc(Cl)cc1`, the T/C (dose: 100.0 mg/kg/injection, schedule: Q01DX001 (ip), vehicle: Klucel (hydroxypropylcellulose) (HPC)) was 108 % of control, the T/C (dose: 200.0 mg/kg/injection, schedule: Q01DX001 (ip), vehicle: Klucel (hydroxypropylcellulose) (HPC)) was 92 % of control and the T/C (dose: 400.0 mg/kg/injection, schedule: Q01DX001 (ip), vehicle: Klucel (hydroxypropylcellulose) (HPC)) was 100 % of control.
`O=S(=O)(O)c1ccc(-c2c3nc(c(-c4ccc(S(=O)(=O)O)cc4)c4ccc([nH]4)c(-c4ccc(S(=O)(=O)O)cc4)c4nc(c(-c5ccc(S(=O)(=O)O)cc5)c5ccc2[nH]5)C=C4)C=C3)cc1` was tested, and the T/C (dose: 100.0 mg/kg/injection, schedule: Q01DX001 (ip), vehicle: saline) was 108 % of control, the T/C (dose: 200.0 mg/kg/injection, schedule: Q01DX001 (ip), vehicle: saline) was 108 % of control and the T/C (dose: 400.0 mg/kg/injection, schedule: Q01DX001 (ip), vehicle: saline) was 113 % of control.
`CCCCNC(=O)Oc1ccc(C(=O)OCC)cc1` was tested, and the T/C [4] was 100 % of control, the T/C [5] was 97 % of control and the T/C [1] was 97 % of control and 100 % of control. The T/C [6] was 96 % of control, the T/C [7] was 96 % of control and the T/C [8] was 90 % of control.
With `CC(=O)Nc1ccc2c(c1)Cc1cc(NC(C)=O)c(Cl)cc1-2` the T/C [6] was 103 % of control, the T/C [7] was 97 % of control and the T/C [8] was 98 % of control.
`CCOCC(C(=O)OCC)C(=O)OCC` was tested, and the T/C [6] was 104 % of control, the T/C [7] was 102 % of control and the T/C [8] was 104 % of control.
With `COc1cccc(CN2CCCNCC2)c1` the T/C (dose: 25.0 mg/kg/injection, schedule: Q01DX005 (ip), vehicle: water) was 96 % of control, the T/C (dose: 50.0 mg/kg/injection, schedule: Q01DX005 (ip), vehicle: water) was 96 % of control and the T/C (dose: 100.0 mg/kg/injection, schedule: Q01DX005 (ip), vehicle: water) was 94 % of control.
In the case of `O=C(CCCCC(=O)Nc1ccc(C2=NCCN2)cc1)Nc1ccc(C2=NCCN2)cc1`, the T/C (dose: 75.0 mg/kg/injection, schedule: Q01DX009 (ip), vehicle: saline) is reported as 168 % of control, the T/C (dose: 150.0 mg/kg/injection, schedule: Q01DX009 (ip), vehicle: saline) is reported as 216 % of control and the T/C (dose: 300.0 mg/kg/injection, schedule: Q01DX009 (ip), vehicle: saline) is reported as 236 % of control.
